{"source": "patent US9682993B2", "about": "“Anticancer compounds” (ST. JUDE CHILDREN'S RESEARCH HOSPITAL, priority 2012, dated 2017)", "type_in_all_cases": "cell-based", "key": {"[1]": {"system": "SK-MEL-2", "assay": "Drug combination assay, SK-MEL-2", "experimental": "(§1) Preliminary cytotoxic screenings for each drug used in drug combination assays were performed to determine their cytotoxic dose range. […] Eight concentrations were established by 1:3 serial dilutions of the single drugs and their combinations with the splicing modulators. All drug concentrations were evaluated in triplicate in 96-well cell culture plates. Assays of individual drugs and drug combinations were run on the same tissue culture plate. Cell viability was determined using the CellTiter-Glo reagent.\n(§2) Luminescence data obtained from the cell viability determinations were formatted per the requirements of the analytical software (viability data range: >0 and <1). The formatted data were analyzed with the software CalcuSyn 2.1 (Biosoft, Cambridge, UK), which provides quantitative CI values for the drug interaction analyses (see ranges in Supplementary Table S2)."}, "[2]": {"system": "HeLa", "assay": "Drug combination assay, HeLa", "details": "HeLa; inhibitor + compound 19", "experimental": "as §1, with “reagent. Drug interactions, in terms of synergism, additive effect, or antagonism, were based on the drugs' Combination Index (CI) (Chou et al., Adv. Enzyme Regul. 1984, 22, 27).” for “reagent.”\nas §2, with “S2). […] Therefore, in these two cases the drug interaction was evaluated by comparing the IC50 value of Sudemycin with that of the IC50 values resulting from the serial dilutions of the splicing modulator combined with a constant dose of the non-toxic drug.” for “S2).”"}, "[3]": {"system": "JeKo-1", "assay": "Drug combination assay, JeKo-1", "details": "inhibitor + compound 19", "experimental": "as §1, with “reagent. Drug interactions, in terms of synergism, additive effect, or antagonism, were based on the drugs' Combination Index (CI) (Chou et al., Adv. Enzyme Regul. 1984, 22, 27).” for “reagent.”\nas §2, with “S2). […] Therefore, in these two cases the drug interaction was evaluated by comparing the IC50 value of Sudemycin with that of the IC50 values resulting from the serial dilutions of the splicing modulator combined with a constant dose of the non-toxic drug.” for “S2).”"}, "[4]": {"system": "PC-3", "assay": "Drug combination assay, PC-3", "details": "inhibitor + compound 19", "experimental": "as §1, with “reagent. Drug interactions, in terms of synergism, additive effect, or antagonism, were based on the drugs' Combination Index (CI) (Chou et al., Adv. Enzyme Regul. 1984, 22, 27).” for “reagent.”\nas §2, with “S2). […] Therefore, in these two cases the drug interaction was evaluated by comparing the IC50 value of Sudemycin with that of the IC50 values resulting from the serial dilutions of the splicing modulator combined with a constant dose of the non-toxic drug.” for “S2).”"}, "[5]": {"system": "Sk-N-AS", "assay": "Drug combination assay, Sk-N-AS neuroblastoma", "details": "Sk-N-AS; inhibitor + compound 19", "experimental": "as §1, §2"}, "[6]": {"system": "WiDr", "assay": "Drug combination assay, WiDr", "details": "inhibitor + compound 19", "experimental": "as §1, with “reagent. Drug interactions, in terms of synergism, additive effect, or antagonism, were based on the drugs' Combination Index (CI) (Chou et al., Adv. Enzyme Regul. 1984, 22, 27).” for “reagent.”\nas §2, with “S2). […] Therefore, in these two cases the drug interaction was evaluated by comparing the IC50 value of Sudemycin with that of the IC50 values resulting from the serial dilutions of the splicing modulator combined with a constant dose of the non-toxic drug.” for “S2).”"}, "[7]": {"system": "cell lines investigated", "assay": "Drug combination assays, cell line not stated", "experimental": "as §1, §2"}}, "data": [{"smiles": "CO[C@H]1C[C@@H]2CC[C@@H](C)[C@@](O)(O2)C(=O)C(=O)N2CCCC[C@H]2C(=O)O[C@H]([C@H](C)C[C@@H]2CC[C@@H](OC(=O)C(C)(CO)CO)[C@H](OC)C2)CC(=O)[C@H](C)/C=C(\\C)[C@@H](O)[C@@H](OC)C(=O)[C@H](C)C[C@H](C)/C=C/C=C/C=C/1C", "note": "[Temsirolimus]", "values": [{"measurement": "CI in SK-MEL-2 with compound 19", "setting": "[1]; Combination Index at ED50, CalcuSyn 2.1, listed drug + compound 19", "result": 0.68}, {"measurement": "CI of 19 + inhibitor", "setting": "[1]; SK-MEL-2, inhibitor + compound 19", "result": 0.68}, {"measurement": "Interaction Type", "setting": "[1]; listed drug combined with compound 19, Ineffective = drug IC50 much higher than 1 μM", "result": "Synergism (0.3-0.7)"}, {"measurement": "CI of 19 + inhibitor", "setting": "[2]", "result": 0.35}, {"measurement": "CI of 19 + inhibitor", "setting": "[3]", "result": 0.37}, {"measurement": "CI of 19 + inhibitor", "setting": "[4]", "result": 0.57}, {"measurement": "CI of 19 + inhibitor", "setting": "[5]", "result": 0.58}, {"measurement": "CI of 19 + inhibitor", "setting": "[6]", "result": 0.44}, {"measurement": "drug interaction with compound 20", "setting": "[7]", "result": "demonstrated synergy"}]}]}
